Patent publication US5733890A, “Adenylate analogs as potent anti-herpes virus agents” (National Science Council, priority 1996, dated 1998)
≈ marks a conversion by molar mass, not a printed value. Read-outs that look alike come from different tables or passages of the source.

What was measured:
[1] = test system: varicella-zoster virus (VZV); assay: Inhibition of cytopathogenicity of VZV in Hela cell culture; assay type: cell-based; settings: for IC50: read-out: IC50 VZV (YS)
Description: (§1) We tested the synthesized compounds for their inhibition of cytopathogenicity of herpes simplex type 1 virus (HSV-1), herpes simplex type 2 virus (HSV-2), and varicella-zoster virus (VZV) in Hela cell culture. These compounds include VI, 12, 13, 40, 42, a mixture of VI and 13 (1:1), ara-A 37, and a mixture of 13 and 37 (1:1). Toxicity of these compounds was evaluated by their ability to cause morphological changes in cells at different concentrations.

[2] = test system: herpes simplex type 2 virus (HSV-2); assay: Inhibition of cytopathogenicity of HSV-2 in Hela cell culture; assay type: cell-based; settings: for IC50: read-out: IC50 HSV-2 (G)
Description: as §1

[3] = Toxicity: morphological changes in Hela cells; assay type: cell-based; settings: human; Hela cells; average of triplicate determinations; read-out: IC50 Hela cell (concentration required to cause microscopically visible change or disruption in about 50% of the cell sheet)
Description: as §1
(§2) ^b Concentration of the compound required to cause microsopically
(§3) visible change or disruption in about 50% of the cell sheet; and […]

Hela cell = assay: Toxicity: morphological changes in Hela cells; assay type: cell-based; settings: in comparison with Ara-A 37
Description: as §1, §2, §3

[4] = test system: herpes simplex type 1 virus (HSV-1); assay: Inhibition of cytopathogenicity of HSV-1 in Hela cell culture; assay type: cell-based; settings: for IC50: read-out: IC50 HSV-1 (KOS)
Description: as §1

[5] = target: T1, calf mucosal adenosine deaminase (EC 3.5.4.4) (Bos taurus, UniProt P56658); assay: Deamination kinetics of compounds as substrates of adenosine deaminase; assay type: biochemical; settings: for adenosine deaminase substrate / deamination by / resistance to adenosine deaminase: in words; for rel Vmax: relative, 37 = 1; for complex formation with adenosine deaminase: Table 1; for deamination by / resistance to adenosine deaminase: in vitro
T1 construct: calf mucosal adenosine deaminase; from tissue; host or cells: calf mucosa
T1 sequence (P56658 1-363): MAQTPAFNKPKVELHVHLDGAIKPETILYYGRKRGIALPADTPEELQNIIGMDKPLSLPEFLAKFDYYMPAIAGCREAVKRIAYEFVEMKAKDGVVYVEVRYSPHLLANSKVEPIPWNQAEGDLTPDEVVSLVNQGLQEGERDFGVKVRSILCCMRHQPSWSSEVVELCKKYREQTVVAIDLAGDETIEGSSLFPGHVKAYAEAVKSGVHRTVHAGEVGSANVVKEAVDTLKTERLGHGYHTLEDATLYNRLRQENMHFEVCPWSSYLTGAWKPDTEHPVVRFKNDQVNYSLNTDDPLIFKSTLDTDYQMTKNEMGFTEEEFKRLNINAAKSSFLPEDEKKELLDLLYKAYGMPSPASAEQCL
Excerpt: (§4) By following an established procedure [Ogilvie, K. K.; Nguyen-Ba, N.; Gillen, M. F.; Radatus, B. K.; Cheriyan, U. O.; Hanna, H. R.; Smith, K. O.; Galloway, K. S. Synthesis of A Purine Acyclonucleoside Series Having Pronounced Antiviral Activity. The Glyceropurines. Can. J. Chem. 1984, 62, 241-252.], we determined the rates of deamination of VI, 13, 37, 40, and 42 in the presence of calf mucosal adenosine deaminase (EC 3.5.4.4) in buffer solutions.

[6] = Solubility in H2O (phosphate buffer); settings: for water solubility (in words): from Table 2; for solubility in H2O: phosphate buffer 0.10M, 20 h, UV absorbance; for solubility at 20 h: 0.10 m phosphate buffer, aqueous buffer
Description: Each compound (70 mg) listed in Table 2 was agitated in a 25-mL volumetric flask with phosphate buffer (0.10M, 5.0 mL) for 20 h. This solution was filtered from undissolved solid through a sintered glass funnel (4.0-5.5 mesh ASTM) and the concentration of the solution was determined by UV absorbance (Table 2).

[7] = target: T1, calf mucosal adenosine deaminase (EC 3.5.4.4); assay: Competitive inhibition of adenosine deaminase; assay type: biochemical; settings: for type of inhibition of adenosine deaminase / Ki: Ara-A 37 used as substrate; for Ki: Kaplan method
Excerpt: as §4

[8] = Partition coefficient (lipophilicity), 1-pentanol / phosphate buffer; settings: P = [Substrate]1-pentanol/[Substrate]H2O
Description: The layers were separated, and their concentrations were determined by an UV spectrophotometer.
^a Partition coefficients were calculated as follows:
P = [Substrate]1pentanol /[Substrate]H.sbsb.2O.

viral replication = settings: background; cited from earlier work
adenosine deaminase = settings: background; cited from earlier work
HSV-1, HSV-2 and VZV = assay: Anti-herpes activity in Hela cell culture (all viruses of Table 3); assay type: cell-based; settings: for effect on antiviral activity by mixing with compound 13: mixed with compound 13 (Table 3)
Description: as §1

[9] = background; cited from earlier work
acute type B hepatitis = settings: background; cited from earlier work
[10] = Human alphaherpesvirus 3, strain YS, Hela cell culture, average of triplicate determinations
[11] = Human alphaherpesvirus 2, strain G, Hela cell culture, average of triplicate determinations
[12] = Human alphaherpesvirus 1, strain KOS, Hela cell culture, average of triplicate determinations

For `CCOP(=O)(O)CCOCn1cnc2c(N)ncnc21.N` [Compound 12, Ammonium Ethyl [2-[(Adenin-9-yl)methoxy]ethyl]phosphonate], the “antiviral activity against VZV (in words)” value ([1]; Hela cell culture) was “exhibit antiviral activity”, the IC50 ([1]; Human alphaherpesvirus 3, HeLa) was 25 µg/mL and the “antiviral activity against HSV-2 (in words)” value ([2]; Hela cell culture) was “exhibit antiviral activity”. For the same compound, the IC50 ([2]; Human alphaherpesvirus 2, HeLa) was 13.8 µg/mL, the CC50 [3] was 176 µg/mL and the “cellular toxicity (in words)” value (Hela cell) was “lower cellular toxicity”. For the same compound, the “antiviral activity against HSV-1 (in words)” value ([4]; Hela cell culture) was “exhibit antiviral activity” and the IC50 ([4]; Human alphaherpesvirus 1, HeLa) was 11.3 µg/mL.
For `Nc1ncnc2c1ncn2COCCP(=O)(O)O` [Compound 13, 2-[(Adenin-9-yl)methoxy]ethylphosphonic Acid], the “antiviral activity against VZV (in words)” value ([1]; Hela cell culture) was “exhibit antiviral activity”, the IC50 [1, 10] was 16 µg/mL (≈ 58.6 µM) and the “antiviral activity against HSV-2 (in words)” value ([2]; Hela cell culture) was “exhibit antiviral activity”. For the same compound, the IC50 [2, 11] was 5.86 µg/mL (≈ 21.5 µM), the CC50 [3] was 215 µg/mL (≈ 787 µM) and the “cellular toxicity (in words)” value (Hela cell) was “lower cellular toxicity”. For the same compound, the adenosine deaminase substrate [5] was “adenosine deaminase substrates”, the “rel Vmax” value [5] was 1.49 × 10^-6 and the “Vmax compared with that of VI (times less)” value ([5]; versus VI) was ~ 10^-4 times less. For the same compound, the “water solubility (in words)” value [6] was “higher water solubility”, the “solubility in H2O” value [6] was 13640 µg/mL (≈ 49900 µM) and the “type of inhibition of adenosine deaminase” value [7] was “competitive inhibition”. The Ki [7] was 18.2 µM, the “inhibition of adenosine deaminase (in words)” value ([7]; Table 1) was “inhibits adenosine deaminase” and the “efficiency as inhibitor of adenosine deaminase versus acyclonucleoside VI” value ([7]; compared with VI) was “acted more efficiently than acyclonucleoside VI”. The “log P” value [8] was 0.07, the “antiviral activity against HSV-1 (in words)” value ([4]; Hela cell culture) was “exhibit antiviral activity” and the IC50 [4, 12] was 3.98 µg/mL (≈ 14.6 µM).
For `Nc1ncnc2c1ncn2[C@@H]1O[C@H](CO)[C@@H](O)[C@@H]1O` [Compound 37, 9-(β-D-arabinofuranosyl)adenine, reference compound], the IC50 [1, 10] is listed as greater than 128 µg/mL, the “inhibition of viral replication” value (viral replication) is listed as “can inhibit viral replication” and the IC50 [2, 11] is listed as greater than 128 µg/mL. The CC50 [3] was 98.8 µg/mL (≈ 370 µM), the “conversion in vivo to hypoxanthine (Ara-Hx) via deamination by adenosine deaminase” value (adenosine deaminase) was “converted in vivo to hypoxanthine (Ara-Hx)” and the “effect on antiviral activity by mixing with compound 13” value (HSV-1, HSV-2 and VZV) was “synergistic effect”. The “complex formation with adenosine deaminase” value [5] was “can form a complex”, the “rel Vmax” value [5] was 1 and the solubility at 20 h [6] was 400 µg/mL (≈ 1500 µM). For the same compound, the “lipophilicity (in words)” value [9] was “poor lipophilicity”, the “log P” value [8] was -0.47 and the IC50 [4, 12] was 10.8 µg/mL (≈ 40.4 µM). The “potency in treating a patient having acute type B hepatitis” value (acute type B hepatitis) was “potent”.
For `Nc1ncnc2c1ncn2COCCP(=O)(O)O[C@H]1[C@H](O)[C@H](n2cnc3c(N)ncnc32)O[C@@H]1CO` [Compound 40, 9-(β-D-Arabinofuranosyl)adenine-3'-[[2-(Adenin-9-ylmethoxy)ethyl]phosphonate]], the “antiviral activity against VZV (in words)” value ([1]; Hela cell culture) was “not active against VZV”, the IC50 [1, 10] was greater than 128 µg/mL and the “antiviral activity against HSV-2 (in words)” value ([2]; Hela cell culture) was “exhibit antiviral activity”. For the same compound, the IC50 [2, 11] was 16.3 µg/mL (≈ 31.2 µM), the CC50 [3] was 346 µg/mL (≈ 662 µM) and the “cellular toxicity (in words)” value (Hela cell) was “lower cellular toxicity”. The “deamination by / resistance to adenosine deaminase” value [5] was “slow rate of deamination”, the adenosine deaminase substrate [5] was “a substrate of adenosine deaminase” and the “rel Vmax” value [5] was 7.64 × 10^-2. For the same compound, the “Vmax less than that of Ara-A 37” value ([5]; versus Ara-A 37) was 92%, the “water solubility (in words)” value [6] was “higher water solubility” and the “solubility in H2O” value [6] was 2460 µg/mL (≈ 4710 µM). The “log P” value [8] was -0.68, the “antiviral activity against HSV-1 (in words)” value ([4]; Hela cell culture) was “exhibit antiviral activity” and the IC50 [4, 12] was 8.97 µg/mL (≈ 17.2 µM).
With `COC(=O)C(C)NP(=O)(CCOCn1cnc2c(N)ncnc21)OC1C(CO)OC(n2cnc3c(N)ncnc32)C1O` [Compound 42, 9-(β-D-Arabinofuranosyl)adenine-3'-[(Methoxyalaninyl)[2-(adenin-9-ylmethoxy)ethyl]phosphonates]] the “antiviral activity against VZV (in words)” value ([1]; Hela cell culture) was “exhibit antiviral activity”, the IC50 [1, 10] was 4.82 µg/mL (≈ 7.93 µM) and the “antiviral activity against HSV-2 (in words)” value ([2]; Hela cell culture) was “exhibit antiviral activity”. For the same compound, the IC50 [2, 11] was 0.88 µg/mL (≈ 1.45 µM), the CC50 [3] was 215 µg/mL (≈ 355 µM) and the “cellular toxicity (in words)” value (Hela cell) was “lower cellular toxicity”. For the same compound, the “antiviral activity (in words)” value (HSV-1, HSV-2 and VZV; Table 3) was “superior antiviral activity”, the Km ([5]; adenosine deaminase substrate, buffer solutions) was greater than 1500 µM and the “deamination by / resistance to adenosine deaminase” value [5] was “completely resisted deamination”. For the same compound, the solubility at 20 h [6] was 8250 µg/mL (≈ 13600 µM), the “water solubility (in words)” value [6] was “higher water solubility” and the “log P” value [8] was 0.87. For the same compound, the “antiviral activity against HSV-1 (in words)” value ([4]; Hela cell culture) was “exhibit antiviral activity” and the IC50 [4, 12] was 0.38 µg/mL (≈ 0.625 µM).
For `Nc1ncnc2c1ncn2COCCO` [VI, Acyclic adenosine, reference compound], the IC50 [1, 10] is listed as 6.5 µg/mL (≈ 31.1 µM), the “inhibition of viral replication” value (viral replication) is listed as “can inhibit viral replication” and the IC50 [2, 11] is listed as 8.26 µg/mL (≈ 39.5 µM). For the same compound, the CC50 [3] was 266 µg/mL (≈ 1270 µM), the “effect on antiviral activity by mixing with compound 13” value (HSV-1, HSV-2 and VZV) was “synergistic effect” and the “complex formation with adenosine deaminase” value [5] was “can form a complex”. The adenosine deaminase substrate [5] was “adenosine deaminase substrates”, the “rel Vmax” value [5] was 1.52 × 10^-2 and the “solubility in H2O” value [6] was 1950 µg/mL (≈ 9320 µM). The “type of inhibition of adenosine deaminase” value [7] was “competitive inhibition”, the Ki [7] was 142 µM and the “log P” value [8] was 0.98. For the same compound, the IC50 [4, 12] was 4.43 µg/mL (≈ 21.2 µM).
